system: luciferase gene expression in HEK 293 cells in response to Comp. 004; assay: Screen of riboswitch constructs with 12C6-1 variant aptamers (libraries N1-N5) against Comp. 004, luciferase in HEK 293 cells; type: cell-based, human; conditions: library N1 (J2-4), HEK 293, 25 M [sic] Comp. 004
Method in brief: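 Riboswitch constructs carrying 12C6-1 aptamer variants, randomized in J2-4, J2-3/J3-3a/J3a-2/P3, L3a, J4-5/J5-4/P4 or L5 regions (libraries N1-N5), cloned into an intron-exon-intron cassette driving luciferase. Screened in HEK 293 cells with 25 µM Comp. 004; read-out is fold induction of gene expression versus parent Luci-12C6-1.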

Substance | Fold (induction of luciferase gene expression) [fold]
N1_2H7 (CTGGGGAGTCCTTCATGCGGGGC; chemistry not given here) | 1.16
N1_2E10 (CTGGGGAGTCCTTCATGCGGGGC; chemistry not given here) | 2.86
N1_2F9 (CTGGGGAGTCCTTCATGCGGGGC; chemistry not given here) | 1.71
N1_2D12 (CTGGGGAGTCCTTCATGCGGGGC; chemistry not given here) | 3.26
N1_2G4 (CTGGGGAGTCCTTCATGCGGGGC; chemistry not given here) | 9.06
N1_2D6 (CTGGGGAGTCCTTCATGCGGGGC; chemistry not given here) | 13.57

same assay, conditions: library N2 variant aptamers (J2-3, P3-J3-3a, J3a-2 randomized) of 12C6-1 in riboswitch constructs; in response to Comp. 004; HEK 293 cells

Substance | Fold (induction of luciferase gene expression) [fold]
N2_2H2 (CTGGGGAGTCCTTCATGC; chemistry not given here) | 0.8
N2_2G2 (DNA CTGGGGAGTCCTTCATGC; chemistry not given here) | 1.3
N2_2A6 (CTGGGGAGTCCTTCATGC; chemistry not given here) | 1.2

same assay, conditions: library N5 variant aptamers (L5, X16-X21 randomized) of 12C6-1 in riboswitch constructs; in response to Comp. 004 treatment; HEK 293 cells

Substance | Fold (induction of luciferase gene expression) [fold]
N5_14H11 (CTGGGGAGTCCT; chemistry not given here) | 918.4
N5_1B11 (CTGGGGAGTCCT; chemistry not given here) | 477.1
N5_1C10 (CTGGGGAGTCCT; chemistry not given here) | 693.8
N5_7F9 (DNA CTGGGGAGTCCT; chemistry not given here) | 642.4
N5_2C2 (CTGGGGAGTCCT; chemistry not given here) | 894.7
N5_7E12 (DNA CTGGGGAGTCCT; chemistry not given here) | 933.3
N5_7C8 (DNA CTGGGGAGTCCT; chemistry not given here) | 1313.8
N5_7C10 (CTGGGGAGTCCT; chemistry not given here) | 1090.7
N5_14D10 (CTGGGGAGTCCT; chemistry not given here) | 950.5
N5_7F11 (DNA CTGGGGAGTCCT; chemistry not given here) | 339.7
N5_7F3 (DNA CTGGGGAGTCCT; chemistry not given here) | 1139.0
N5_7D5 (DNA CTGGGGAGTCCT; chemistry not given here) | 1182.3
N5_9B8 (DNA CTGGGGAGTCCT; chemistry not given here) | 792.8
N5_1H8 (CTGGGGAGTCCT; chemistry not given here) | 622.6
N5_1E6 (CTGGGGAGTCCT; chemistry not given here) | 365.1
N5_7C2 (DNA CTGGGGAGTCCT; chemistry not given here) | 627.0
N5_6D12 (CTGGGGAGTCCT; chemistry not given here) | 2318.1
N5_1A1 (CTGGGGAGTCCT; chemistry not given here) | 670.2
N5_1A2 (CTGGGGAGTCCT; chemistry not given here) | 672.2
N5_7G10 (DNA CTGGGGAGTCCT; chemistry not given here) | 530.8
N5_7F5 (DNA CTGGGGAGTCCT; chemistry not given here) | 1115.4
N5_13C10 (CTGGGGAGTCCT; chemistry not given here) | 1144.6
N5_11B9 (CTGGGGAGTCCT; chemistry not given here) | 1595.4
